In patent publication US20240238301A1, “COMPOSITIONS AND METHODS FOR REDUCED TOXICITY IN TRANSPLANTATION USING JANUS KINASE (JAK) INHIBITORS” (THE REGENTS OF THE UNIVERSITY OF COLORADO, A BODY CORPORATE, priority 2021, published 2024):

How the values were obtained:
[1] = manufacturer reported; cited from earlier work
[2] = test system: C57BL/6 recipients and Balb/cJ donors; assay: MHC-mismatched allogeneic BMT, donor cell engraftment by FACS of peripheral blood (C57BL/6 recipients, Balb/cJ donors); type: in vivo, mice; settings: 6.5 Gy RIC TBI
Procedure: (§1) In one exemplary method, mouse models of human allogeneic bone marrow transplant events were prepared. In brief, major histocompatibility complex (MHC)-mismatched bone marrow transplants (BMTs, HCT)—which model human allogeneic BMTs—were performed in mice. Mice used in this exemplary method were the C57BL/6 mouse strain (which express the MHC marker H2K^b) and the Balb/cJ strain (which express the MHC marker H2K^d). Both mouse strains were maintained by homozygous breeding according to established vivarium practices. Mice approximately 6-10 weeks of age were used for both recipients and donors. Donors and recipients were matched in gender (male recipient mice receive cells from male donors while female recipients receive cells from female donors).
(§2) In another exemplary method, BMT was performed by isolating bone marrow cells from the bones of euthanized donor mice using a method similar to previous methods (Amend et al., J Vis Exp. 2016 Apr. 14; (110):53936). […] Viable cells (which excluded Trypan Blue) were counted using a hematocytometer. […] Stained cells were resuspended in PBS and evaluated via Fluorescent-Activated Cell Sorting (FACS) on a Cytek Aurora cytometer. FACS data was analyzed using FloJo software. […] Cells which were negative for Ter119 (RBCs) and positive for CD45 (hematopoietic cells) were further analyzed. […]

[3] = test system: recipient and donor NK and T cells (mouse spleen cells); assay: Effect on recipient versus donor NK and T cells in spleen after BMT (FACS); type: in vivo, mice; settings: spleen cells after BMT (data not shown)
Procedure: In another exemplary method, BMTs were performed and assessed to determine the effects of JAK inhibitors on recipient compared to donor NK and T cells as outlined in FIG. 6. In this exemplary method, BMTs were performed in mice as described in Example 1 wherein C57BL/6 mice were the transplant donors while Balb/cJ mice served as stem cell recipients. Recipient mice were treated with Ruxolitinib and given RIC TBI followed by BMT as previously described in the examples herein. On Day +1 and Day +3 post-BMT, a portion of the recipient mice were euthanized, and their spleens were harvested. The spleen cells were prepared into a single cell suspension, subjected to RBC lysis, stained (using previously referenced markers in addition to T-cell subset markers, CD4 and CD8) and analyzed by FACS as described in the examples herein.

[4] = test system: Balb/cJ recipients and C57BL/6 donors; assay: MHC-mismatched allogeneic BMT, donor cell engraftment by FACS of peripheral blood (Balb/cJ recipients, C57BL/6 donors); type: in vivo, mice; settings: 4 Gy RIC TBI, 90 mg/kg oral gavage twice daily Day -5 through Day +2, 4 weeks post-BMT, n=7
Procedure: as §1, §2

In the case of `N#CC[C@H](C1CCCC1)n1cc(-c2ncnc3[nH]ccc23)cn1` [Ruxolitinib phosphate], the “solubility in DMSO” value [1] is given as 200 mg/mL.

In the case of `N#CC[C@H](C1CCCC1)n1cc(-c2ncnc3[nH]ccc23)cn1` [ruxolitinib], the “donor cell engraftment (mice engrafted)” value ([2]; 180 mg/kg Day -5 through Day +2, 4 weeks post-BMT, n=6) was 100%, the “donor cell engraftment (mice engrafted)” value ([2]; 270 mg/kg Day -5 through Day +2, 4 weeks post-BMT, n=3) was 100% and the “effect on donor T cells” value [3] was “no significant effect”. For the same molecule, the “donor cell engraftment (mice engrafted)” value [4] was 100%.
